Laboratory results reported in US20150119245A1, “Method for Producing Shelf Stable Hypochlorous Acid Solutions” (priority 2013, published 2015).

Columns and labels:
[1] = Window cleaner streak test, sprayed on glass and dried without wiping; details: test solution as used in streak test
[2] = Available chlorine present as hypochlorous acid as a function of pH (FIG. 2); format: physicochemical
From the text: The concentration of hypochlorous acid solutions (HOCl) are usually reported as free available chlorine (FAC) in parts per million (ppm). Hypochlorous acid (HOCl) is in equilibrium with hypochlorite ion (^−OCl) and Cl2 and the extent of the equilibrium is controlled by the pH of the solution, as shown in FIG. 2. Therefore, both FAC and pH need to be known to understand the amount of chlorine present as hypochlorous acid.
Thus at pH 5, a 100 ppm FAC solution will have 100 ppm chlorine present as HOCl.

Row | FAC present as hypochlorous acid ([2]; pH 7.5) | available chlorine present as hypochlorous acid ([2]; pH of 3) | available chlorine present as HOCl ([2]; pH range of 4 to 5.6) | Compound | pH [1]
1 | – | – | – | [Na+].[OH-] [NaOH, sodium hydroxide] | 12.2
2 | 50% | about 90% | approximately 100% | OCl [hypochlorous acid] | –
